The test system of test [1] is isolated yeast mitochondria. Put plainly: Mitochondrial oxygen consumption (MitoXpress probe). The class given is biochemical, Saccharomyces cerevisiae. How it is done:
S. cerevisiae from frozen stock (−80°C) was inoculated into yeast extract-peptone-glucose (YPD) medium (1% yeast extract, 2% peptone, and 2% glucose) and grown for 24 h at 30°C. The cultured cells were subcultured into yeast extract-peptone-galactose (YPGal) medium (1% yeast extract, 2% peptone, 2% galactose, and 0.1% glucose) and incubated overnight with continuous shaking at 30°C. When the optical density at 600 nm reached approximately 1.0, the cells were collected by centrifugation (3,000 × g at room temperature for 5 min). Intact mitochondria were isolated as per a previously described protocol ([35]) with minor modifications as follows. Yeast cells were converted to spheroplasts by incubation with Zymolyase-20T (Nacalai Tesque, Inc., Kyoto, Japan) (4 mg of Zymolyase-20T/g [wet weight] of cells) and disrupted using a Dounce homogenizer. The crude mitochondrial fraction was isolated by differential centrifugation ([35]). […]. The mitochondrial protein concentration was determined using the DC protein assay (Bio-Rad Laboratories, Inc., Hercules, CA, USA) following the manufacturer’s instructions. The mitochondrial stock solution was maintained on ice during the oxygen consumption experiment.
The mitochondrial oxygen consumption was measured using a phosphorescent oxygen-sensitive probe, MitoXpress-Xtra (Agilent Technologies, Santa Clara, CA, USA), as described previously ([16], [36]). Succinate was used as a respiratory substrate in this assay. […] A microplate reader, PHERAstar Plus (BMG Labtech GmbH, Ortenberg, Germany), was used to read. The time-resolved fluorescence protocol was set to read the plate at 1.5-min intervals for 60 min at an excitation wavelength of 337 nm, an emission wavelength of 665 nm, a delay time of 40 μs, and a gate time of 100 μs at 30°C.
[…]. […] For quantitative assessment, OCR was determined from the slope of the initial 7.5 min. OCR is expressed as micromolar of O2 per minute per milligram of protein.
The drug concentration was expressed as micromoles per milligram of protein. […]

Test [2] addresses respiratory chain complex IV (Saccharomyces cerevisiae, UniProt P00401+P00410+P00420). In words: Respiratory chain enzymatic activity, complex IV, S. cerevisiae. The class given is biochemical.
Test [3] has as its target T1, respiratory chain complex II + III (Candida albicans, UniProt A0A1D8PHA3+A0A1D8PJX3+P0C8L0).
T1 sequence (P0C8L0 1-387): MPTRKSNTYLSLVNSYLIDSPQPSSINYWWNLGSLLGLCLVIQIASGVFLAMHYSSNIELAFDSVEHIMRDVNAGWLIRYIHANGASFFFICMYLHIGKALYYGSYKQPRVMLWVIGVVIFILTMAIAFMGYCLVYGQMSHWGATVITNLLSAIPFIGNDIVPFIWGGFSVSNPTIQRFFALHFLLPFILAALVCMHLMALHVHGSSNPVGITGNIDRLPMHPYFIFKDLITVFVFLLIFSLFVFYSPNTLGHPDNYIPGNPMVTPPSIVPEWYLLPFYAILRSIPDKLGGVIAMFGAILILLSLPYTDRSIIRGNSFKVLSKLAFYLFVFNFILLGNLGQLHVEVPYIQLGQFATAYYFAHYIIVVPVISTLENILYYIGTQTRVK
T1 sequence (A0A1D8PHA3 43-288): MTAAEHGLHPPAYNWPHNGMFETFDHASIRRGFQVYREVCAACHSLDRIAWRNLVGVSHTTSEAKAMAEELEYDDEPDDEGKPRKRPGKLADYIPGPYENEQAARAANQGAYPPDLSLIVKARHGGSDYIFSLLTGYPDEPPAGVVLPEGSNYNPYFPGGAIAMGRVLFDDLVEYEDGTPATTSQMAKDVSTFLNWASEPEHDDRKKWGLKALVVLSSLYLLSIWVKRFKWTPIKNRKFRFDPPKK
T1 sequence (A0A1D8PJX3 30-213): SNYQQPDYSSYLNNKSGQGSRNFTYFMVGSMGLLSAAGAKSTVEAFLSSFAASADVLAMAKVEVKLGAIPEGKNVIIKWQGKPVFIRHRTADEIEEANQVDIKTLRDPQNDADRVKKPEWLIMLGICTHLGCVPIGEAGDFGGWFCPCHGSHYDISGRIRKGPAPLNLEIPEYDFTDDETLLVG
In words: Respiratory chain enzymatic activity, complexes II plus III, C. albicans. Type of test: biochemical. Conditions: C. albicans mitochondria; read-out: IC50 ± SD, Complex II + III.

The next test has as its system C. albicans. Conditions: cited from earlier work.
Test [4] has as its target respiratory chain complex I (Candida albicans, UniProt Q9B8D6). Put plainly: Respiratory chain enzymatic activity, complex I (rotenone-sensitive), C. albicans. The class given is biochemical. Conditions: read-out: IC50 ± SD, Complex I.

Values after ≈ are worked out from the molar mass of the structure shown.

One may read the IC50 as the concentration that gives 50% inhibition. As for `N=C(N)c1ccc(OCCCC2CCN(CCCOc3ccc(C(=N)N)cc3)CC2)cc1` [T-2307], in test [1], the “effect on mitochondrial oxygen consumption rate (OCR)” value was “dose-dependent decrease”. Besides, the IC50 amounted to 149 ± 23 µM in test [2], 220 ± 55 µM in test [3] and 344 ± 32 µM in test [4]. Further, the MIC reported previously with C. albicans is 4 nM (≈ 1.75 ng/mL).

The values above are taken from PMC6658782, “The Novel Arylamidine T-2307 Selectively Disrupts Yeast Mitochondrial Function by Inhibiting Respiratory Chain Complexes” (Antimicrobial Agents and Chemotherapy, 2019).
